Reference: PMC11855207, “Synthesis and Evaluation of Aromatic A-Ring 23-Oxavitamin D3 Analogues as Hedgehog Pathway Inhibitors” (International Journal of Molecular Sciences, 2025)
Read-outs that look alike come from different tables or passages of the source.

Experiments:
[1] = test system: Hh signaling pathway (Gli1 mRNA) in ASZ001 cells; assay: Gli1 mRNA down-regulation (qPCR) in ASZ001 cells; assay type: cell-based; details: Mus musculus
[2] = test system: VDR signaling (Cyp24A1 mRNA) in C3H10T1/2 cells; assay: Cyp24A1 mRNA up-regulation (qPCR) in C3H10T1/2 cells; assay type: cell-based, mouse; details: Mus musculus, C3H 10T1/2, 5 μM with OHCs 5 μM, 24 h, relative to DMSO (set to 1.0)
Description: (§1) The VD3 analogues were initially assessed for their ability to inhibit the Hh signaling pathway by evaluating the effects on endogenous Gli1 mRNA levels at a single concentration (5 μM) co-administration of oxysterols (OHCs; 20(S)-hydroxycholesterol, 22(S)-hydroxycholesterol at 5 μM each) in C3H10T1/2 cells, an Hh-dependent mouse embryonic fibroblast (MEF) cell line. […] VD3 derivatives may retain some VDR agonistic activity, thereby compromising the selectivity of these compounds as Hh inhibitors. The selectivity profile of the analogues for Hh inhibition, compared to typical VDR activation, was assessed by measuring the ability to up-regulate Cyp24a1 mRNA levels in the same cellular system and by evaluating their binding to VDR using a fluorescence polarization-based competition assay (Table 1).
(§2) Mouse embryonic fibroblast cell line (C3H10T1/2, wild-type, VDR^−/−, SuFu^−/−), mouse keratinocyte cell line (ASZ001), and human embryonic kidney cell line (HEK293T) were purchased from China Center for Type Culture Collection (CCTCC; Wuhan, Hubei, China) and cultured under standard protocols. […] Therefore, they can be used to assess the inhibitory strength of the Hh signaling and the selectivity of the VDR signaling. VDR^−/− and SuFu^−/− C3H10T1/2 cells were used to study compounds selectivity for Hh and VDR signaling. If compounds regulate Hh signaling independently of VDR, their ability to down-regulate Gli1 mRNA expression should be abolished in SuFu^−/− C3H10T1/2 cells. […] The loss of Ptch in ASZ001 cells […], so down-regulating Gli1 reflects direct Smo inhibition by the compound. Comparing results from ASZ001 and C3H10T1/2 cells highlights the compound’s inhibition of the Hh signaling pathway.
(§3) RNA isolation in C3H10T1/2 cells was performed in 24-well plates (50,000 cells plated; TRIZOL Reagent); in ASZ001, cells were done in 35 mm dishes (300,000 cells plated; TRIZOL Reagent). cDNA synthesis was performed utilizing the SweScript All-in-One RT SuperMix Kit (Servicebio, Wuhan, China) per the manufacturer’s instructions on a BioRad S1000 Thermal Cycler (Hercules, CA, USA). qPCR (Hh signaling pathway and VDR) analysis of target genes was performed on Step OnePlus (ABI) using the Taqman Gene Expression Assays: mouse ActB (Mm00607939_s1), mouse GLI1 (Mm00494645_ml), mouse PTCH1(Mm00436026_m1), and mouse CYP24A1 (Mm00487244_ml). Relative gene expression levels were computed via the ΔΔCt method. ActinB mRNA expression levels of all samples were normalized to DMSO control ActinB mRNA levels (vehicle; set at 1.00). […] The mRNA expression levels from drug-treated samples were compared to OHCs levels (Gli1, PTCH) and DMSO control (Cyp24A1).

[3] = test system: Hh signaling pathway (Ptch mRNA) in C3H10T1/2 cells; assay: Ptch mRNA down-regulation (qPCR) in C3H10T1/2 cells; assay type: cell-based; details: Mus musculus
[4] = test system: ASZ001 cells; assay: Anti-proliferation (MTS) in ASZ001 cells; assay type: cell-based; details: Mus musculus, 48 h incubation, mean ± SEM
[5] = test system: Hh signaling pathway (Gli1 mRNA) in C3H10T1/2 cells; assay: Gli1 mRNA down-regulation (qPCR) in OHC-stimulated C3H10T1/2 cells; assay type: cell-based, mouse; details: Mus musculus; for mrna remaining at 5 µM: C3H 10T1/2, 5 μM with OHCs 5 μM, 24 h, relative Gli1 mRNA levels compared to OHCs (set to 100%); for IC50: C3H 10T1/2, mean ± SEM
Description: as §1, §2, §3

[6] = test system: VDR signaling (Cyp24A1 mRNA) in ASZ001 cells; assay: Cyp24A1 mRNA expression (qPCR) in ASZ001 cells; assay type: cell-based; details: Mus musculus, read-out: Cyp24A1 mRNA levels relative to DMSO
[7] = molecular target: T1, recombinant VDR (Homo sapiens, UniProt P11473); assay: VDR binding, fluorescence polarization-based competition assay (PolarScreen VDR Competitor Assay Red); details: compounds evaluated at 100 μM
T1 construct: purchased Thermo Fisher Scientific
T1 sequence (P11473 1-427): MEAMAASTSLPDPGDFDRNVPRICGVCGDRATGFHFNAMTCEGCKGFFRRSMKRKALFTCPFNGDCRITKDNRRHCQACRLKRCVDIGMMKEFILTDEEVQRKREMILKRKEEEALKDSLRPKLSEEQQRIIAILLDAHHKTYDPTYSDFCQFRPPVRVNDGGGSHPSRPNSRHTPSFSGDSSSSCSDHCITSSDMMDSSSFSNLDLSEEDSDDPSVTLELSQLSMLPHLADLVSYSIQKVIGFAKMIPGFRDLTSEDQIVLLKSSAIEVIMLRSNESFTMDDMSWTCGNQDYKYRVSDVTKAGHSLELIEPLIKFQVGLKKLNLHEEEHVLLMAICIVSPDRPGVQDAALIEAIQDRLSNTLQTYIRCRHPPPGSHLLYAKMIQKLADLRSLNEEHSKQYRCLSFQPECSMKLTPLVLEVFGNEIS
Description: as §1
VDR binding assay was performed using a PolarScreen VDR Competitor Assay Red kit (Thermo Fisher Scientific, Carlsbad, CA, USA) per the manufacturer’s instructions. Compounds were evaluated at 100 μM in 2.5% final DMSO in triplicate. Calcitriol is utilized as a positive control for VDR binding.

[8] = test system: primary Ptch-CKO MB cells; assay: Anti-proliferation (MTS) in primary Ptch-CKO MB cells; assay type: cell-based; details: Mus musculus, 48 h incubation, mean ± SEM
Description: Ptch-CKO MB cells, derived from a conditional Patched knockout mouse, lack Ptch-like ASZ001 cells. Consequently, the inhibitory effect of the compound on Ptch-CKO MB cells directly reflects its suppression of the canonical Hh signaling pathway. Cell viability was assessed by MTS proliferation assay kit (Promega, Madison, WI, USA) according to the manufacturer’s protocol. Culture conditions and experimental protocols to determine GI50 values in the primary murine Ptch-CKO MB cells were as previously described.

[9] = molecular target: T2, full-length human Smo (Homo sapiens, UniProt Q99835); assay: BODIPY-Cyc displacement (flow cytometry) in HEK293T cells overexpressing Smo; assay type: binding; details: up to 10 μM
T2 construct: HEK293T cells overexpressing full-length human Smo was evaluated; expressed in transfected cells; host or cells: HEK293T

[10] = test system: Hh signaling (Gli1 mRNA) in SuFu−/− C3H10T1/2 cells; assay: Gli1 down-regulation in SuFu−/− C3H10T1/2 cells; assay type: cell-based, mouse; details: 24 h
[11] = test system: Hh signaling (Gli1 mRNA) in VDR−/− C3H10T1/2 cells; assay: Gli1 down-regulation in VDR−/− C3H10T1/2 cells; assay type: cell-based, mouse; details: 24 h
[12] = test system: Cyp24A1 mRNA in SuFu−/− C3H10T1/2 cells; assay: Cyp24A1 up-regulation in SuFu−/− C3H10T1/2 cells; assay type: cell-based, mouse; details: 24 h
[13] = molecular target: T3, Smo protein (Homo sapiens, UniProt Q99835); assay: Surface plasmon resonance (SPR) binding to Smo; details: 2.5, 5, 10 μM in PBS, 4 °C
T3 construct: purchased ACRO Biosystems SMO-H52P3
Description: Surface plasmon resonance (SPR) was used to evaluate the binding capacity of the compounds 3j and 4i to Smo. […] To investigate the binding sites of the analogues on Smo, the ability of 3j and 4i to displace BODIPY-Cyc from HEK293T cells overexpressing full-length human Smo was evaluated. […] Smo contains two small molecule binding sites, one located in the extracellular cysteine-rich domain (CRD) and the other in the 7-transmembrane helix (7-TM) region. […] Endogenous oxidized sterols can regulate Smo activity by binding CRD [27]. These analogues, as mimetics of steroid hormones, may interact with Smo by binding to CRD.
SPR analysis was conducted as described in papers. The analyses of interactions between Smo protein (ACRO Biosystems, SMO-H52P3, Newark, DE, USA) and compounds at different concentrations (2.5, 5, 10 μM) was performed in PBS and a flow rate of 2 μL/s at 4 °C. The sensor chip surface was regenerated by injection of 0.5% SDS: Glycine-HCl (pH = 2.0) = 1:1 solution.

[14] = test system: Hh signaling pathway; assay: Anti-Hh activity in combination with vismodegib; assay type: cell-based; details: combined with vismodegib 100 nM
[15] = test system: Cyp24A1 mRNA in VDR−/− C3H10T1/2 cells; assay: Cyp24A1 up-regulation in VDR−/− C3H10T1/2 cells; assay type: cell-based, mouse; details: 24 h
[16] = ASZ001 cells, mean ± SEM, read-out: Gli1 IC50
[17] = C3H 10T1/2, C3H10T1/2 cells, mean ± SEM, read-out: Ptch IC50
[18] = ASZ001 cells, 5 μM, 24 h, DMSO set to 1.0

T2 sequence (Q99835 28-787): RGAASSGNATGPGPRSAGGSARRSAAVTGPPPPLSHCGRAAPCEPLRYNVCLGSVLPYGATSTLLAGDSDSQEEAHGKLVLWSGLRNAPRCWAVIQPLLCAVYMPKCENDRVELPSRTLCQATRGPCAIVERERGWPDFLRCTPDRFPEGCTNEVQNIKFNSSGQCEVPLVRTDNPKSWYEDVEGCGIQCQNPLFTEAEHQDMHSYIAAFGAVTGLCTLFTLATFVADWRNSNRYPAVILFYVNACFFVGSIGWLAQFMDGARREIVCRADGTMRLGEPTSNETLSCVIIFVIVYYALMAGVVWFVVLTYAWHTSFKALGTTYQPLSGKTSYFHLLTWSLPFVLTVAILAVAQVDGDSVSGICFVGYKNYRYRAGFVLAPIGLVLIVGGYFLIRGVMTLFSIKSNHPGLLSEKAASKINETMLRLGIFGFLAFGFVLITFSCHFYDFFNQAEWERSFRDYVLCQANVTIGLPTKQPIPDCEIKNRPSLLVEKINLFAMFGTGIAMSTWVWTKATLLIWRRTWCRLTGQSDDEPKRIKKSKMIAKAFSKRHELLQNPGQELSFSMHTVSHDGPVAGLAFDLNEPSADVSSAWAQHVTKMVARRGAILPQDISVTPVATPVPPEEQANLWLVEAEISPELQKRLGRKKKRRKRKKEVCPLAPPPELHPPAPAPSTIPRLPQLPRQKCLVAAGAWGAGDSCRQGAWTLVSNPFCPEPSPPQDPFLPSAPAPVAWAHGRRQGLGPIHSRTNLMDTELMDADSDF
T3 sequence (Q99835 28-787): as above

SMILES | IC50 ([1]; ASZ001, read-out: Gli1 IC50) [µM] | fold induction at 5 µM [2] | IC50 ([3]; C3H 10T1/2, read-out: Ptch IC50) [µM] | GI50 [4] [µM] | mrna remaining at 5 µM [5] [%] | IC50 [5] [µM] | fold induction at 5 µM ([6]; ASZ001, 24 h) | VDR Binding [7] [µM] | GI50 [8] [µM] | Displacement of BODIPY-Cyc from Smo [9] | Displacement of BODIPY-Cyc from Smo ([9]; listed as Cyc) | Ability to inhibit Hh signaling (Gli1 down-regulation) versus wild-type cells [10] | IC50 [1, 16] [µM] | IC50 [3, 17] [µM] | fold induction at 5 µM [6, 18] | Ability to inhibit Hh signaling (Gli1 down-regulation) versus wild-type cells [11] | Ability to up-regulate Cyp24A1 versus wild-type cells [12] | SPR interaction with Smo [13] | Change of IC50 value in combination with vismodegib [14] | Ability to up-regulate Cyp24A1 versus wild-type cells [15]
C=C1CC[C@H](O)C/C1=C/C=C1\CCC[C@]2(C)[C@@H]([C@H](C)CCCC(C)C)CC[C@@H]12 [VD3, Vitamin D3] | 2.1 ± 0.2 | 8350 ± 102 | 3.3 ± 0.4 | 15.6 ± 1.7 | 32.5 ± 0.6 | 4.2 ± 0.4 | 821 ± 26.3 | >100 | 6.4 ± 0.7 |  |  |  |  |  |  |  |  |  |  | 
CC1=C2C[C@H]3[C@@H](CC=C4C[C@@H](O)CC[C@@]43C)[C@@H]2CC[C@]12O[C@@H]1C[C@H](C)CN[C@H]1[C@H]2C [Cyclopamine, reference compound] |  |  |  |  |  |  |  |  |  | displaced BODIPY-Cyc in a concentration-dependent manner | displaced BODIPY-Cyc in a dose-dependent manner |  |  |  |  |  |  |  |  | 
CS(=O)(=O)c1ccc(C(=O)Nc2ccc(Cl)c(-c3ccccn3)c2)c(Cl)c1 [Vismodegib, reference compound] |  |  |  | 2.1 |  |  |  |  | 0.78 ± 0.1 |  |  | no activity |  |  |  |  |  |  |  | 
CC(C)COC[C@@H](C)[C@H]1CC[C@H]2[C@@H](OC(=O)c3ccc(O)cc3)CCC[C@]12C [Compound 3k] |  | 32.1 ± 3.2 |  | > 20 | 7.3 ± 1.9 | 3.8 ± 0.4 |  | >100 | > 10 |  |  |  | 6.2 ± 1.1 | 10.3 ± 1.1 | 5.8 ± 0.3 |  |  |  |  | 
COc1ccc(C(=O)O[C@H]2CCC[C@]3(C)[C@@H]([C@H](C)COCC(C)(C)O)CC[C@@H]23)cc1O [Compound 4g] |  | 83.6 ± 15.6 |  | 7.8 ± 1.1 | 2.5 ± 0.5 | 2.1 ± 0.2 |  | >100 | 3.4 ± 0.5 |  |  |  | 3.7 ± 0.7 | 3.8 ± 0.4 | 56.8 ± 5.1 |  |  |  |  | 
CC(C)COC[C@@H](C)[C@H]1CC[C@H]2[C@@H](OC(=O)c3cc(O)cc(O)c3)CCC[C@]12C [Compound 3j] |  | 11.4 ± 1.3 |  | 13.4 ± 1.4 | 2.4 ± 0.4 | 1.8 ± 0.3 |  | >100 | 6.7 ± 0.8 | neither 3j nor 4i affected BODIPY-Cyc-Smo binding interactions |  | mostly abolished | 5.5 ± 0.7 | 3.6 ± 0.5 | 2.1 ± 0.3 | modestly reduced | significantly reduced | exhibited interactions with Smo | did not change the IC50 value | significantly reduced
CC(C)COC[C@@H](C)[C@H]1CC[C@H]2[C@@H](OC(=O)c3cccc(O)c3)CCC[C@]12C [Compound 3i] |  | 13.8 ± 1.4 |  | > 20 | 6.1 ± 1.1 | 2.3 ± 0.7 |  | >100 | 8.1 ± 1.1 |  |  |  | 5.2 ± 0.3 | 5.6 ± 0.6 | 2.3 ± 0.2 |  |  |  |  | 
